Data on twelve compounds can be found in patent US7247456B2, “Preparation of fucosylated oligosaccharides” (Neose Technologies, Inc., priority 1998, dated 2007).

Data set [1] addresses T1, E. coli K12 GDP-mannose dehydratase (GDP-mannose 4,6-dehydratase, GMD), recombinant wild type from pTGK:GMD (Escherichia coli, UniProt P0AC88).
T1 construct: made in house; host or cells: E. coli JM101 (plasmid pTGK:GMD), supernatant of French press lysate
In words: Linearity of the GDP-mannose dehydratase assay with time (product inhibition). The class given is biochemical. The conditions noted are these: linear up to 30 minutes, up to 90% of substrate consumed. The method, then: (§1) C. Assay of GDP-Mannose Dehydratase
(§2) To assay GDP-mannose dehydratase activity, a reverse phase HPLC assay was developed. […] GDP-mannose dehydratase activity was determined by reacting GDP-mannose dehydratase extract with 480 nmole of GDP-mannose in 50 mM Tris pH 7.5, 0.15 mM NADP^+ (NADP^+ is absolutely required for GDP-mannose dehydratase activity) in a 100 μl reaction volume. Twenty μl of the assay mix was injected over the C18 column.
(§3) By comparing the peak area of the no enzyme control, corresponding to 200 nmole, the decrease in the peak area of GDP-mannose was used to directly measure the activity of GDP-mannose dehydratase by the following formulae: (No enzyme peak area)−(enzyme peak area)=(Peak area of GDP-mannose consumed) 1. (Peak area of GDP-mannose consumed)/(No enzyme peak area)=% of 200 nmole GDP-mannose consumed. 2.
Samples were thawed and immediately injected over an aquasil reverse phase HPLC column.

Data set [2] has as its target T2, GDP-mannose dehydratase (Escherichia coli, UniProt P0AC88).
T2 construct: made in house; host or cells: E. coli JM101 (plasmid pTGK:GMD), French-press lysate supernatant
The experiment in a line: GDP-mannose dehydratase reverse phase HPLC activity assay. The conditions noted are these: for effect on GDP-mannose dehydratase activity: concentrations ranging from 1-20 mM. The class given is biochemical, E. coli. The method, then:
(§4) To assay GDP-mannose dehydratase activity, a reverse phase HPLC assay was developed. […] […] Twenty μl of the assay mix was injected over the C18 column.
as §3
(§5) To control for any carryover loss upon HPLC injection, 10 nmole of CTP was added to the sample to be analyzed.

Data set [3] addresses T1, E. coli K12 GDP-mannose dehydratase (GDP-mannose 4,6-dehydratase, GMD), recombinant wild type from pTGK:GMD. The experiment in a line: Inhibition of GDP-mannose dehydratase (GMD) by GDP-fucose, reverse phase HPLC assay (FIG. 5). The class given is biochemical. How it is done:
as §1, §2, §3, §5
Since GDP-mannose dehydratase represents the first committed step in GDP-fucose biosynthesis it is possible that GDP-fucose is a feedback inhibitor of the enzyme. To determine if this is true, the standard assay was performed in the presence of increasing amounts of GDP-fucose. […]

The target in data set [4] is T3, GDP-mannose dehydratase (Sus scrofa, UniProt F1RX12).
T3 sequence (F1RX12 1-372): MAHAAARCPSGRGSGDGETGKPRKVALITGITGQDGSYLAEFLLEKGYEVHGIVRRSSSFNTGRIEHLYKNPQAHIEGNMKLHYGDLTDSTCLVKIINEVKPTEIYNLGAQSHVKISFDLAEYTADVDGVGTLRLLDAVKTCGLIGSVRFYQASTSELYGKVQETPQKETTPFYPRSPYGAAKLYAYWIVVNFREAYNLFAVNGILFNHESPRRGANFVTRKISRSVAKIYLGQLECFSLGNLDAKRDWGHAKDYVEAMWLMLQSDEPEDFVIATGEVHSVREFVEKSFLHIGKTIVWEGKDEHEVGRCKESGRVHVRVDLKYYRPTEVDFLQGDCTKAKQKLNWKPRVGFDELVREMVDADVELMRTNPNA
The conditions noted are these: cited from earlier work.

Data set [5] relates to GDP-mannose dehydratase. The conditions noted are these: cited from earlier work.
For another data set, the target named is T4, fucosyltransferase V (Homo sapiens, UniProt Q11128).
T4 sequence (Q11128 1-374): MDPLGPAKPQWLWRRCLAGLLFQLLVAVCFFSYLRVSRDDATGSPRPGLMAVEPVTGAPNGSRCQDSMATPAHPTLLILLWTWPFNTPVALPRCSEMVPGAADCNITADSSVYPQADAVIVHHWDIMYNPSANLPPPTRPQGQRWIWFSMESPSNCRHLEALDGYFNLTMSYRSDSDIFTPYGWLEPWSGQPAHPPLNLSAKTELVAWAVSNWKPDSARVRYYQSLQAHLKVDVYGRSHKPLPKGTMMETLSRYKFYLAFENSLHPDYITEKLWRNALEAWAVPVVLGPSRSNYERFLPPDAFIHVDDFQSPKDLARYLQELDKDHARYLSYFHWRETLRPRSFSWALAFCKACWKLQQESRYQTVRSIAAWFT
The following applies: literature statement; cited from earlier work.

For the next data set, the system named is fucosyltransferases. The following applies: cited from earlier work.
For data set [6], the target named is T5, fucosyltransferase V (FT V) (Homo sapiens, UniProt Q11128).
T5 construct: printed for the preparative synthesis
T5 sequence (Q11128 1-374): T4 sequence (Q11128 1-374)
In words: Inhibition of fucosyltransferase V. The following applies: compared with GDP. It counts as biochemical.

The target of another data set is YEF B (Escherichia coli, UniProt P32055, E255D/L256V). The conditions noted are these: for YEF B Activity %: none = 100; for effect on YEF B activity: varying concentrations of metal ion. How it is done:
To assay YEF B activity, a reverse phase HPLC assay was developed. An Aquesil C18 reverse phase column was set up in-line on a Beckman 126 solvent monitor. The column was eluted isocratically with 0.5M KH2PO4 over twenty minutes with a flow rate of 1 ml/min. A photodiode array detector was employed to monitor the elution scanning the 210-300 nm wavelength range.
A coupled assay was employed to assay YEF B activity. This was required since its substrate, GDP-4-keto-6-deoxymannose, is unstable and not commercially available. Twenty mUnit of GDP-mannose dehydratase was allowed to react with 480 nMole of GDP-mannose for 20 minutes under standard assay conditions as previously. […] The reaction was allowed to proceed for ten minutes at which point the reaction was stopped by freezing on dry ice. After thawing 10 μl aliquots were analyzed by reverse phase HPLC analysis. The amount of GDP fucose formed was calculated by analyzing a separate assay mix in the absence of GDP-mannose dehydratase to yield a 100% value for the absorption peak of GDP-mannose. […] to yield percentage of GDP-fucose formed. (% GDP-fucose)(nMole GDP-mannose in reaction)=nMole GDP-fucose formed.
The assay pH was varied from 6.5 to 8.0 using MES and Tris as buffers. The standard assay mix contained 20 mUnit GDP-mannose dehydratase, […] GDP-mannose, […], 10 mUnit glucose dehydrogenase (to recycle NADPH utilized by YEF B), 50 mM buffer at the appropriate pH and YEF B at appropriate dilution. The reaction was allowed to proceed for 15 minutes at 37° C. and immediately frozen on dry ice to stop the reaction. Ten μl aliquots were removed after thawing and analyzed by reverse phase HPLC.

The target in data set [7] is T1, E. coli K12 GDP-mannose dehydratase (GDP-mannose 4,6-dehydratase, GMD), recombinant wild type from pTGK:GMD. In words: Cofactor (NADP+) dependence of GDP-mannose dehydratase (Table 5). It counts as biochemical. How it is done:
as §1, §2, §3, §5

In data set [8] the target is T6, GDP-mannose dehydratase (Escherichia coli, UniProt P0AC88).
T6 construct: made in house; host or cells: E. coli JM101 (plasmid pTGK:GMD), French-press lysate supernatant
T6 sequence (P0AC88 whole entry, looked up): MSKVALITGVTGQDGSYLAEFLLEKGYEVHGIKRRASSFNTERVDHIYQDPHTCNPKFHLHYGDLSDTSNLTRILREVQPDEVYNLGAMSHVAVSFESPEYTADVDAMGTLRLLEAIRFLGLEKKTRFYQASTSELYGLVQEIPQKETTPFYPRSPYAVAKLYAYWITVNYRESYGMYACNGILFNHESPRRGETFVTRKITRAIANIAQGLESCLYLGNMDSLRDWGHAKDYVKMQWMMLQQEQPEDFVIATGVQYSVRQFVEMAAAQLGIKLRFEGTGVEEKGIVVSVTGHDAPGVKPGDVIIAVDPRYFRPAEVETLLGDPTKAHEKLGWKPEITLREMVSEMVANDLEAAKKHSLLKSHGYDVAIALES
The experiment in a line: GDP-mannose dehydratase reverse phase HPLC activity assay. The following applies: 10 mUnit alkaline phosphatase included in the assay. The class given is biochemical, E. coli. How it is done: as §4, §3, §5

“Also recorded” adds a separate entry of the source. Where two headings read alike, the source gives them in different places.

Sequence of YEF B (P32055 whole entry E255D/L256V): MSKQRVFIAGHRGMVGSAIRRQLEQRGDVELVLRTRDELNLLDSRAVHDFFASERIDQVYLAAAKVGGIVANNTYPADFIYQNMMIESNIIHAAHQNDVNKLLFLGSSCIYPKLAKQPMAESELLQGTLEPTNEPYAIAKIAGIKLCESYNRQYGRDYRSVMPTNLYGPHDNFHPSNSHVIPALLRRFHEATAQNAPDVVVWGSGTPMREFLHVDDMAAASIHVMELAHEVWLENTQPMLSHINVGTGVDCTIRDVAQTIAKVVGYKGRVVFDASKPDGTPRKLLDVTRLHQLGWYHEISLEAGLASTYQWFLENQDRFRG

Regarding `C[C@H]1O[C@H](OP(=O)(O)OP(=O)(O)OC[C@H]2O[C@@H](n3cnc4c(=O)[nH]c(N)nc43)[C@H](O)[C@@H]2O)[C@@H](O)[C@@H](O)C1=O` [GDP-4-keto-6 deoxymannose, GDP-4-keto-6-deoxymannose], the “inhibition of GDP-mannose dehydratase by the product” value in data set [1] is “does not inhibit the enzyme”.

As to `C[C@H]1O[C@H](OP(=O)(O)OP(=O)(O)OC[C@H]2O[C@@H](n3cnc4c(=O)[nH]c(N)nc43)[C@H](O)[C@@H]2O)[C@@H](O)[C@@H](O)C1=O` [GDP-4-keto-6-deoxymannose], the “inhibition of GDP-mannose dehydratase by its product” value against GDP-mannose dehydratase [2] (assay linear up to 90% of substrate consumed) is listed as “does not inhibit the enzyme”.

Regarding `C[C@@H]1O[C@H](OP(=O)(O)OP(=O)(O)OC[C@H]2O[C@@H](n3cnc4c(=O)[nH]c(N)nc43)[C@H](O)[C@@H]2O)[C@@H](O)[C@H](O)[C@@H]1O` [GDP-fucose], the IC50 in data set [3] (restated for the 0.2 kG scale production, quantity not given, read-out: inhibitor concentration ("40 μM inhibitor", see FIG. 5)) was 40 µM; in data set [3] (standard assay: 480 nmole GDP-mannose, 50 mM Tris pH 7.5, 0.15 mM NADP+, 100 μl, increasing amounts of GDP-fucose, read-out: IC50) it was ~40 µM. At GDP-mannose dehydratase [4] (at 50 μM GDP-fucose), the “catalytic activity of GDP-mannose dehydratase remaining” value is 10%. Further, the “remaining catalytic activity of GDP-mannose dehydratase” value with GDP-mannose dehydratase [5] (at 50 μM GDP-fucose) is on record as 10%. For the same compound, in the data set on GDP-mannose dehydratase [5], the “inhibition of GDP-mannose dehydratase” value was “strongly inhibited”.

Regarding `Nc1nc2c(ncn2[C@@H]2O[C@H](COP(=O)(O)OP(=O)(O)O)[C@@H](O)[C@H]2O)c(=O)[nH]1` [GDP], the values for the inhibition of fucosyltransferases result at fucosyltransferase V and in the data set on fucosyltransferases were “inhibit; also recorded: potent inhibitor” and “known to inhibit”, respectively. Moreover, the “inhibition of GDP-mannose dehydratase” value at GDP-mannose dehydratase [4] (literature statement) is “inhibit”; with GDP-mannose dehydratase [5], “known to inhibit”.

Turning to `Nc1nc2c(ncn2[C@@H]2O[C@H](COP(=O)(O)OP(=O)(O)OP(=O)(O)O)[C@@H](O)[C@H]2O)c(=O)[nH]1` [GTP], in data set [6], the “inhibitory potency relative to GDP (fold less potent)” value turned out to be 10 ×.

Regarding `[Cl-].[Cl-].[Mg+2]` [MgCl2], the “% GDP-mannose Dehydratase Activity mUnit/ml” value on GDP-mannose dehydratase [2] (1 mM metal ion) was 560 mUnit/ml; at GDP-mannose dehydratase [2] (10 mM metal ion), 610 mUnit/ml; at GDP-mannose dehydratase [2] (20 mM metal ion), 590 mUnit/ml. In addition, at GDP-mannose dehydratase [2], the “effect on GDP-mannose dehydratase activity” value is recorded as “essentially no effect”. Besides, the “YEF B Activity %” value on YEF B (1 mM metal ion) and on YEF B (10 mM metal ion) was 110% throughout. Also, the “effect on YEF B activity” value at YEF B was “somewhat stimulatory”.

On to `[Cl][Mn][Cl]` [MnCl2], for which the figures for the “% GDP-mannose Dehydratase Activity mUnit/ml” value at GDP-mannose dehydratase [2] (1 mM metal ion), on GDP-mannose dehydratase [2] (10 mM metal ion) and at GDP-mannose dehydratase [2] (20 mM metal ion) were 580 mUnit/ml, 570 mUnit/ml and 620 mUnit/ml, respectively. Besides, the “effect on GDP-mannose dehydratase activity” value at GDP-mannose dehydratase [2] is given as “essentially no effect”. Besides, the “YEF B Activity %” value amounted to 60% on YEF B (1 mM metal ion) and 25% on YEF B (10 mM metal ion). In addition, on YEF B, the “effect on YEF B activity” value is recorded as “severely inhibited in a dose dependent manner”.

For `NC(=O)c1ccc[n+]([C@@H]2O[C@H](COP(=O)(O)OP(=O)(O)OC[C@H]3O[C@@H](n4cnc5c(N)ncnc54)[C@H](O)[C@@H]3O)[C@@H](O)[C@H]2O)c1` [NAD, NAD^+], the “% GDP-mannose dehydratase activity” value in data set [7] (cofactor at 1 mM) is on record as “not detected”. For the same compound, the “substitution for NADP+ as cofactor” value in data set [7] (in place of NADP+) is given as “will not substitute for NADP^+”.

For the compound `NC(=O)c1ccc[n+]([C@@H]2O[C@H](COP(=O)(O)OP(=O)(O)OC[C@H]3O[C@@H](n4cnc5c(N)ncnc54)[C@H](OP(=O)(O)O)[C@@H]3O)[C@@H](O)[C@H]2O)c1` [NADP, NADP^+], in data set [7] (cofactor at 1 mM), the activity at 1000 µM worked out at 100%.

Regarding `NC(=O)c1ccc[n+]([C@@H]2O[C@H](COP(=O)(O)OP(=O)(O)OC[C@H]3O[C@@H](n4cnc5c(N)ncnc54)[C@H](OP(=O)(O)O)[C@@H]3O)[C@@H](O)[C@H]2O)c1` [NADP], the “% GDP-mannose dehydratase activity” value on GDP-mannose dehydratase [2] (0.15 mM cofactor) and on GDP-mannose dehydratase [2] (1 mM cofactor) was 100% throughout.

For `NC(=O)c1ccc[n+]([C@@H]2O[C@H](COP(=O)(O)OP(=O)(O)OC[C@H]3O[C@@H](n4cnc5c(N)ncnc54)[C@H](O)[C@@H]3O)[C@@H](O)[C@H]2O)c1` [NAD], the “% GDP-mannose dehydratase activity” value at GDP-mannose dehydratase [2] (1 mM cofactor) is “not detected”.

Alkaline Phosphatase: the “% GDP-mannose dehydratase activity” value with GDP-mannose dehydratase [8] was “not detected”; in the data set with GDP-mannose dehydratase [8] (listed as alkaline phosphatase) it was “severely attenuated”.
